Measured values: patent publication US8431593B2, “Heteroaryl amide derivatives” (H. Lundbeck A/S, priority 2006, dated 2013)

Molecular target: T1, P2X7 receptor (Homo sapiens, UniProt Q99572)
T1 construct: host or cells: SH-SY5Y
T1 sequence (Q99572 1-595): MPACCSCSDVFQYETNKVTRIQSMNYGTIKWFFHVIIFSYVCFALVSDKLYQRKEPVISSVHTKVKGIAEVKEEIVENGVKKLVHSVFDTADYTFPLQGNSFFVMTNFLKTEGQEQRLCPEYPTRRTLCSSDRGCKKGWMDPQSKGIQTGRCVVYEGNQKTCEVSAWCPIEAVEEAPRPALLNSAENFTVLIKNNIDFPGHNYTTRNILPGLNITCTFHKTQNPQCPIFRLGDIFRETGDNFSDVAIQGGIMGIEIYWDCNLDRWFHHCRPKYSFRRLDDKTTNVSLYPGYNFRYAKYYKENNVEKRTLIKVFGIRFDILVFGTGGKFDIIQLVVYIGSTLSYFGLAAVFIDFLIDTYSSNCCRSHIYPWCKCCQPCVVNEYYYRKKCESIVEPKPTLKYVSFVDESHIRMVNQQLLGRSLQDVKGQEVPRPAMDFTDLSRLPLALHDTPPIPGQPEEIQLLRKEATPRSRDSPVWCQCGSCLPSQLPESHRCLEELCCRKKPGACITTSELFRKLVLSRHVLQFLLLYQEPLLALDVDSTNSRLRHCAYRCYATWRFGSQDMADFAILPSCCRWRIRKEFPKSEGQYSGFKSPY
Test: P2X7 calcium mobilization assay, high throughput, antagonist activity (Example 4A)
Format: cell-based
Details: fluorescence response of cells exposed to 80 μM 2′(3′)-O-(4-benzoyl-benzoyl)adenosine 5′-triphosphate; Example 4A; read-out: IC50
Method in brief: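 100,000 cells/well, plated day -1. Dye 1 h → rinse → compound 1 h, RT → FLIPR^TETRA Ca2+ mobilization. Max RFU minus mean negative control (no agonist); mean agonist-well max as positive control.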

IC50, < 2000 nM:
O=C(NCC12CC3CC(CC(C3)C1)C2)c1cccc2nc(CN3CC[C@H](F)C3)cn12 [Compound 282, N-(adamantan-1-ylmethyl)-2-[(3-fluoropyrrolidin-1-yl)methyl]imidazo[1,2-a]pyridine-5-carboxamide]
NCCS(=O)(=O)Cc1cn2c(C(=O)NCC34CC5CC(CC(C5)C3)C4)cccc2n1 [Compound 283, N-(adamantan-1-ylmethyl)-2-{[(2-aminoethyl)sulfonyl]methyl}imidazo [1,2-a]pyridine-5-carboxamide]
Cc1cc(-c2cn3c(C(=O)NCC45CC6CC(CC(C6)C4)C5)cccc3n2)n[nH]1 [Compound 284, N-(adamantan-1-ylmethyl)-2-(5-methyl-1H-pyrazol-3-yl)imidazo[1,2-a]pyridine-5-carboxamide]
O=C(O)COCc1cn2c(C(=O)NCC34CC5CC(CC(C5)C3)C4)cccc2n1 [Compound 285, ({5-[{adamantan-1-ylmethyl)carbamoyl]imidazo[1,2-a]pyridin-2-yl}methoxy)acetic acid]
O=C(NCC12CC3CC(CC(C3)C1)C2)c1cccc2nc(CN3CCCC3)cn12 [Compound 286, N-(adamantan-1-ylmethyl)-2-(pyrrolidin-1-ylmethyl)imidazo[1,2-a]pyridine-5-carboxamide]
O=C(O)CSCc1cn2c(C(=O)NCC34CC5CC(CC(C5)C3)C4)cccc2n1 [Compound 287, [({5-[(adamantan-1-ylmethyl)carbamoyl]imidazo[1,2-a]pyridin-2-yl}methyl)thio]acetic acid]
O=C(NCC12CC3CC(CC(C3)C1)C2)c1cccc2nc(CN3CCCC(F)(F)C3)cn12 [Compound 288, N-(adamantan-1-ylmethyl)-2-[(3,3-difluoropiperidin-1-yl)methyl]imidazo[1,2-a]pyridine-5-carboxamide]
O=C(O)CS(=O)(=O)Cc1cn2c(C(=O)NCC34CC5CC(CC(C5)C3)C4)cccc2n1 [Compound 289, [({5-[(adamantan-1-ylmethyl)carbamoyl]imidazo[1,2-a]pyridin-2-yl}methyl)sulfonyl] acetic acid]
O=C(NCC12CC3CC(CC(C3)C1)C2)c1cccc2nc(CN3CCC(F)(F)CC3)cn12 [Compound 290, N-(adamantan-1-ylmethyl)-2-[(4,4-difluoropiperidin-1-yl)methyl]imidazo[1,2-a]pyridine-5-carboxamide]
O=C(NCC12CC3CC(CC(C3)C1)C2)c1cccc2nc(CN3CCOCC3)cn12 [Compound 291, N-(adamantan-1-ylmethyl)-2-(morpholin-4-ylmethyl)imidazo[1,2-a]pyridine-5-carboxamide]
O=C(NCC12CC3CC(CC(C3)C1)C2)c1cccc2nc(CCc3nnn[nH]3)cn12 [Compound 292, N-(adamantan-1-ylmethyl)-2-(2-(1H-tetrazol-5-yl)ethyl]imidazo[1,2-a]pyridine-5-carboxamide]
O=C(NCC12CC3CC(CC(C3)C1)C2)c1cccc2nc(CSc3nnc[nH]3)cn12 [Compound 293, N-(adamantan-1-ylmethyl)-2-[(4H-1,2,4-triazol-3-ylthio)methyl]imidazo [1,2-a]pyridine-5-carboxamide]
O=C(NCC12CC3CC(CC(C3)C1)C2)c1cccc2nc(CN3CC[C@@H](F)C3)cn12 [Compound 294, N-(adamantan-1-ylmethyl)-2-[(3-fluoropyrrolidin-1-yl)methyl]imidazo[1,2-a]pyridine-5-carboxamide]
N[C@@H]1CCCN(C(=O)Cc2cn3c(C(=O)NCC45CC6CC(CC(C6)C4)C5)cccc3n2)C1 [Compound 295, N-(adamantan-1-ylmethyl)-2-{2-[(3R)-3-aminopiperidin-1-yl]-2-oxoethyl}imidazo[1,2-a]pyridine-5-carboxamide]
O=C(O)CCc1cn2c(C(=O)NCC34CC5CC(CC(C5)C3)C4)cccc2n1 [Compound 296, 3-{5-[(adamantan-1-ylmethyl)carbamoyl]imidazo[1,2-a]pyridin-2-yl}propanoic acid]
NCCc1cn2c(C(=O)NCC34CC5CC(CC(C5)C3)C4)cccc2n1 [Compound 297, N-(adamantan-1-ylmethyl)-2-(2-aminoethyl)imidazo [1,2-a]pyridine-5-carboxamide]
N#Cc1ccc(-c2cn3c(C(=O)NCC45CC6CC(CC(C6)C4)C5)cccc3n2)cc1 [Compound 298, N-(adamantan-1-ylmethyl)-2-(4-cyanophenyl)imidazo [1,2-a]pyridine-5-carboxamide]
N[C@@H]1CCN(Cc2cn3c(NC(=O)CC45CC6CC(CC(C6)C4)C5)cccc3n2)C1 [Compound 299, 2-adamantan-1-yl-N-(2-{[(3R)-3-aminopyrrolidin-1-yl]methyl}imidazo[1,2-a]pyridin-5-yl)acetamide]
CC1(C)[C@H]2CC[C@@H](CNC(=O)c3cccc4nc(C(=O)N5CCCNCC5)cn34)[C@@H]1C2 [Compound 304, 2-(1,4-diazepan-1-ylcarbonyl)-N-{[(1S,2R,5S)-6,6-dimethylbicyclo[3.1.1]hept-2-yl]methyl}imidazo[1,2-a]pyridine-5-carboxamide]
C[C@@H]1CNCCN1C(=O)c1cn2c(C(=O)NC[C@@H]3CC[C@H]4C[C@@H]3C4(C)C)cccc2n1 [Compound 305, N-{[(1S,2R,5S)-6,6-dimethylbicyclo[3.1.1]hept-2-yl]methyl}-2-{[(2R)-2-methylpiperazin-1-yl]carbonyl}imidazo[1,2-a]pyridine-5-carboxamide]
CC(C)[C@H]1CN(C(=O)c2cn3c(C(=O)NC[C@@H]4CC[C@H]5C[C@@H]4C5(C)C)cccc3n2)CCN1 [Compound 308]
CN(C(=O)c1cn2c(C(=O)NC[C@@H]3CC[C@H]4C[C@@H]3C4(C)C)cccc2n1)C1CCCNC1 (stereo partly drawn) [Compound 311, 5-N-{[(1S,2R,5S)-6,6-dimethylbicyclo[3.1.1]hept-2-yl]methyl}-2-N-methyl-2-N-piperidin-3-ylimidazo[1,2-a]pyridine-2,5-dicarboxamide]
CNC1CCN(C(=O)c2cn3c(C(=O)NC[C@@H]4CC[C@H]5C[C@@H]4C5(C)C)cccc3n2)C1 (stereo partly drawn) [Compound 313, N-{[(1S,2R,5S)-6,6-dimethylbicyclo[3.1.1]hept-2-yl]methyl}-2-{[3-(methylamino)pyrrolidin-1-yl]carbonyl}imidazo[1,2-a]pyridine-5-carboxamide]
CC1(C)[C@H]2CC[C@@H](CNC(=O)c3cccc4nc(C(=O)N5CCC(N)C5)cn34)[C@@H]1C2 (stereo partly drawn) [Compound 315, 2-[(3-aminopyrrolidin-1-yl)carbonyl]-N-{[(1S,2R,5S)-6,6-dimethylbicyclo[3.1.1]hept-2-yl]methyl}imidazo[1,2-a]pyridine-5-carboxamide]
CN(C)CCN(C(=O)c1cn2c(C(=O)NC[C@@H]3CC[C@H]4C[C@@H]3C4(C)C)cccc2n1)C1CCNCC1(C)C (stereo partly drawn) [Compound 319, 2-N-[2-(dimethylamino)ethyl]-5-N-{[(1S,2R,5S)-6,6-dimethylbicyclo[3.1.1]hept-2-yl]methyl}-2-N-(3,3-dimethylpiperidin-4-yl)imidazo[1,2-a]pyridine-2,5-dicarboxamide]
CC1(C)[C@H]2CC[C@@H](CNC(=O)c3cccc4nc(C(=O)N5CCCC(CN)C5)cn34)[C@@H]1C2 (stereo partly drawn) [Compound 322, 2-{[3-(aminomethyl)piperidin-1-yl]carbonyl}-N-{[(1S,2R,5S)-6,6-dimethylbicyclo[3.1.1]hept-2-yl]methyl}imidazo[1,2-a]pyridine-5-carboxamide]
CC1(C)[C@H]2CC[C@@H](CNC(=O)c3cccc4nc(C(=O)N5CCCC5CN)cn34)[C@@H]1C2 (stereo partly drawn) [Compound 324, 2-{[2-(aminomethyl)pyrrolidin-1-yl]carbonyl}-N-{[(1S,2R,5S)-6,6-dimethylbicyclo[3.1.1]hept-2-yl]methyl}imidazo[1,2-a]pyridine-5-carboxamide]
CC1(C)[C@H]2CC[C@@H](CNC(=O)c3cccc4nc(C(=O)N5CCCC(N)C5)cn34)[C@@H]1C2 (stereo partly drawn) [Compound 325, 2-[(3-aminopiperidin-1-yl)carbonyl]-N-{[(1S,2R,5S)-6,6-dimethylbicyclo[3.1.1]hept-2-yl]methyl}imidazo[1,2-a]pyridine-5-carboxamide]
CC1(C)[C@H]2CC[C@@H](CNC(=O)c3cccc4nc(C(=O)N5CCC(N)CC5)cn34)[C@@H]1C2 [Compound 326, 2-[(4-aminopiperidin-1-yl)carbonyl]-N-{[(1S,2R,5S)-6.6-dimethylbicyclo[3.1.1]hept-2-yl]methyl}imidazo[1,2-a]pyridine-5-carboxamide]
